# Experimental data from patent US8912121B2, “Herbicidal compositions comprising 4-amino-3-chloro-5-fluoro-6-(4-chloro-2-fluoro-3-methoxyphenyl)pyridine-2-carboxylic acid or a derivative thereof and certain PS II inhibitors” (Dow Agrosciences LLC, priority 2012, dated 2014).
# System: XANST (Xanthium strumarium, common cocklebur)
# Assay: Pre-emergence soil-applied mixtures, greenhouse
# Assay type: in vivo, Xanthium strumarium L.
# Conditions: for Visual Weed Control (%) Obs: 32 DAA
# Source text: Seeds or nutlets of the desired test plant species were planted in a soil matrix prepared by mixing a loam soil (32 percent silt, 23 percent clay, and 45 percent sand, with a pH of about 6.5 and an organic matter content of about 1.9 percent) and calcareous grit in an 80 to 20 ratio. The soil matrix was contained in plastic pots with a volume of 1 quart and a surface area of 83.6 square centimeters (cm^2).
# Treatments consisted of the benzyl ester of 4-amino-3-chloro-5-fluoro-6-(4-chloro-2-fluoro-3-methoxy-phenyl)pyridine-2-carboxylic acid (compound A) formulated as an SC (suspension concentrate) and various herbicidal components alone and in combination. Forms of compound A were applied on an acid equivalent basis.
# Other herbicidal components were applied on an acid equivalent or active ingredient basis and included the PSII-inhibiting herbicides, atrazine formulated as Atrazine® 90WDG, metribuzin formulated as Metribuzin 75DF, simazine formulated as Princep Caliber 90, tebuthiuron formulated as Spike 80DF, cyanazine (technical grade material), hexazinone (technical grade material), linuron (technical grade material), terbuthylazine (technical grade material), and diuron formulated as Diuron 4L.
# Treatment requirements were calculated based upon the rates being tested, the concentration of active ingredient or acid equivalent in the formulation, and a 12 mL application volume at a rate of 187 L/ha.
# For treatments comprised of formulated compounds, measured amounts of compounds were placed individually in 25 mL glass vials and diluted in a volume of 1.25% (v/v) Agri-Dex® crop oil concentrate (COC) to obtain 12× stock solutions. […] Application solutions were prepared by adding an appropriate amount of each stock solution (e.g., 1 mL) and diluted to the appropriate final concentrations with the addition of 10 mL of an aqueous mixture of 1.25% (v/v) COC so that the final spray solutions contained 1.25% (v/v) COC.
# For treatments comprised of technical compounds, weighed amounts can be placed individually in 25 mL glass vials and dissolved in a volume of 97:3 (v/v) acetone/DMSO to obtain 12× stock solutions. […] Application solutions can be prepared by adding an appropriate amount of each stock solution (e.g., 1 mL) and diluted to the appropriate final concentrations with the addition of 10 mL of an aqueous mixture of 1.5% (v/v) COC so that the final spray solutions contain 1.25% (v/v) COC. When technical materials are used, the concentrated stock solutions can be added to the spray solutions so that the final acetone and DMSO concentrations of the application solutions are 16.2% and 0.5%, respectively.
# For treatments comprised of formulated and technical compounds, weighed amounts of the technical materials can be placed individually in 25 mL glass vials and dissolved in a volume of 97:3 (v/v) acetone/DMSO to obtain 12× stock solutions, and measured amounts of the formulated compounds can be placed individually in 25 mL glass vials and diluted in a volume of 1.5% (v/v) COC or water to obtain 12× stock solutions. […] Application solutions can be prepared by adding an appropriate amount of each stock solution (e.g., 1 mL) and diluted to the appropriate final concentrations with the addition of an appropriate amount of an aqueous mixture of 1.5% (v/v) COC so that the final spray solutions contain 1.25% (v/v) COC. As required, additional water and/or 97:3 (v/v) acetone/DMSO can be added to individual application solutions so that the final acetone and DMSO concentrations of the application solutions being compared are 8.1% and 0.25%, respectively.
# All stock solutions and applications solutions were visually inspected for compound compatibility prior to application. Spray solutions were applied to the soil with an overhead Mandel track sprayer equipped with a 8002E nozzles calibrated to deliver 187 L/ha over an application area of 0.503 m^2 at a spray height of 18 inches (46 cm) above average pot height. […]
# [1] = Compound A Benzyl Ester 16 g ae/ha
# [2] = Compound A Benzyl Ester 32 g ae/ha
compound,measurement,setting,value
"CCNc1nc(Cl)nc(NC(C)C)n1 [Atrazine, 6-chloro-N-ethyl-N′-(1-methylethyl)-1,3,5-triazine-2,4-diamine, reference compound]",Visual Weed Control (%) Obs,560 g ai/ha,68%
same,Visual Weed Control (%) Obs,1120 g ai/ha,40%
"COc1c(Cl)ccc(-c2nc(C(=O)OCc3ccccc3)c(Cl)c(N)c2F)c1F [Compound A Benzyl Ester, benzyl ester of 4-amino-3-chloro-5-fluoro-6-(4-chloro-2-fluoro-3-methoxy-phenyl)pyridine-2-carboxylic acid]",Visual Weed Control (%) Obs,8 g ae/ha,33%
same,Visual Weed Control (%) Obs,16 g ae/ha,35%
same,Visual Weed Control (%) Obs,32 g ae/ha,65%
same,Visual Weed Control (%) - 27 DAA XANST Obs,[1],10%
same,Visual Weed Control (%) - 29 DAA XANST Obs,[1],0%
same,Visual Weed Control (%) - 33 DAA XANST Obs,[1],38%
same,Visual Weed Control (%) - 27 DAA XANST Obs,[2],25%
same,Visual Weed Control (%) - 29 DAA XANST Obs,[2],5%
same,Visual Weed Control (%) - 33 DAA XANST Obs,[2],35%
"CCNc1nc(Cl)nc(NCC)n1 [Simazine, 6-chloro-N,N′-diethyl-1,3,5-triazine-2,4-diamine, reference compound]",Visual Weed Control (%) - 33 DAA XANST Obs,Simazine 1120 g ai/ha,70%
same,Visual Weed Control (%) - 33 DAA XANST Obs,Simazine 2240 g ai/ha,92%
